The source of these data is patent US20230116703A1, “NOVEL ERGOLINES AND METHODS OF TREATING MOOD DISORDERS” (priority 2021, published 2023).

pEC50: −log10 of the molar value. Where two headings read alike, the source gives them in different places.

The term pEC50 denotes the EC50 on a negative log10 scale, so that one unit is a factor of ten. Broadly, the microsomal CLint is the rate of metabolic loss divided by the concentration. Broadly, the ED50 is the dose that gives a 50% effect, or the effect in half of the subjects.

For one data set, the target named is T1, Alpha2A receptor (Homo sapiens, UniProt P08913).
T1 sequence (P08913 1-465): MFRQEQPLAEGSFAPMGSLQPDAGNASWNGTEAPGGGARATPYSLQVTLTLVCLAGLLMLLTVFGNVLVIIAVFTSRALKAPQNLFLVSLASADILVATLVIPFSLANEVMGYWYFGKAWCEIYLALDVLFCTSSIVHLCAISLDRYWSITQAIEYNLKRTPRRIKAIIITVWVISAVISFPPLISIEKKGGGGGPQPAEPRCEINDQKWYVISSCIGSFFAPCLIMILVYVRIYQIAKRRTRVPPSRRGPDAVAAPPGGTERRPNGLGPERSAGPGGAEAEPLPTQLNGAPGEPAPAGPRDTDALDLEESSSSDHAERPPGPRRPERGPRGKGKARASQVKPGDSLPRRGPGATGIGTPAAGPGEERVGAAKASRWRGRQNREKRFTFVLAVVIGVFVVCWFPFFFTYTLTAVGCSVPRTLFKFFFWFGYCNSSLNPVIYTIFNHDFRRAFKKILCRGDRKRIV
In words: FLIPR Ca^2+ flux agonist assay at Alpha2A. The data set is classed as cell-based. On the procedure: Functional Assays at Adrenergic and Dopamine Receptors. Agonist activity at Alpha1A, Alpha2A, D1, and D2 receptors was determined using a FLIPR Ca^2+ flux assay at WuXi AppTec (Hong Kong) Limited according to their standard protocols. Briefly, stably transfected cells expressing the receptor of interest were grown and plated in a 384 well plate and incubated at 37° C. and 5% CO2 overnight. A solution of 250 mM probenecid in 1 mL FLIPR assay buffer was prepared fresh. This was combined with a fluorescent dye (Fluo-4 Direct™) to make a final assay concentration of 2.5 mM. […] The fluorescent dye was then added to the assay plate along with assay buffer to a final volume of 40 μL. The cell plate was incubated for 50 min at 37° C. and 5% CO2 and placed into the FLIPR Tetra along with the compound plate. 10 μL of references and compounds were then transferred from the compound plate into the cell plate and the fluorescent signal was read.

The nature of data set [1]: Metabolic stability in human liver microsomes (HLM). It counts as in vitro ADME. The note with it: for t1/2: 1 μM, 0.50 mg protein per mL; for microsomal CLint at 1 μM: both sexes, human, pooled human liver microsomes, pH 7.4, 0.50 mg protein per mL. An excerpt:
HLM Stability. Pooled HLM from adult male and female donors (Corning 452117) were used.

The test system of the next data set is C57BL/6 mice. Description: Head twitch response (HTR) in mice. It counts as in vivo, mouse. The note with it: SC; for ED50: 20 min, read-out: ED50 (95% CI); for ED50 / Most Efficacious Dose / Emax (95% CI): mouse HTR; for ED50 / Emax (95% CI): 20 min observation, curve fit, poor in some cases; for # HTR at Most Efficacious Dose: head twitches in 20 min.
The target in another data set is T2, 5-HT2A receptor (Homo sapiens, UniProt P28223).
T2 construct: host or cells: HEK293
In words: cell-based. It counts as cell-based. The note with it: for pEC50: Ca^2+ flux, agonist, read-out: 5-HT2A EC50.

Another data set deals with 5-HT1B receptor (Homo sapiens, UniProt P28222). In words: cAMP accumulation agonist assay at 5-HT1B. It counts as cell-based. The note with it: cAMP, agonist; for pEC50: read-out: 5-HT1B EC50. In short, it runs like this:
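Agonism was measured by cAMP accumulation in stably transfected cells incubated 60 min at RT. A detection reagent was then added for 60 min at RT before reading, with an 800 nM cAMP standard in blank wells.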
For orientation: Cyclic AMP is a second messenger, typically raised through Gs and lowered through Gi signalling.

[2] abbreviates: Ca^2+ flux, agonist, read-out: Alpha 2A EC50.

T2 sequence (P28223 whole entry): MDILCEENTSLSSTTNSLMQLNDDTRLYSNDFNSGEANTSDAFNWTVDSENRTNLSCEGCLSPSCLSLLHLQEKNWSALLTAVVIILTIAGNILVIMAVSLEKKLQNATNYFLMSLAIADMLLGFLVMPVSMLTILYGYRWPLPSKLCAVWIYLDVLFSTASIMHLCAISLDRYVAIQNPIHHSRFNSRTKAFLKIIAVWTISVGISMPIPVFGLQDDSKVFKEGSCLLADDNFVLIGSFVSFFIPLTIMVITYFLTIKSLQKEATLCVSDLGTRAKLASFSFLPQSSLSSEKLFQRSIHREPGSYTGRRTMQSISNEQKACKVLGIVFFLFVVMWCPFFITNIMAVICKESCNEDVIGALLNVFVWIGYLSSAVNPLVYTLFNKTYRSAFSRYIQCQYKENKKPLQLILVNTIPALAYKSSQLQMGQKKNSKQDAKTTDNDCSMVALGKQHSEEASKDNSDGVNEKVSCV
Sequence of 5-HT1B receptor (P28222 whole entry): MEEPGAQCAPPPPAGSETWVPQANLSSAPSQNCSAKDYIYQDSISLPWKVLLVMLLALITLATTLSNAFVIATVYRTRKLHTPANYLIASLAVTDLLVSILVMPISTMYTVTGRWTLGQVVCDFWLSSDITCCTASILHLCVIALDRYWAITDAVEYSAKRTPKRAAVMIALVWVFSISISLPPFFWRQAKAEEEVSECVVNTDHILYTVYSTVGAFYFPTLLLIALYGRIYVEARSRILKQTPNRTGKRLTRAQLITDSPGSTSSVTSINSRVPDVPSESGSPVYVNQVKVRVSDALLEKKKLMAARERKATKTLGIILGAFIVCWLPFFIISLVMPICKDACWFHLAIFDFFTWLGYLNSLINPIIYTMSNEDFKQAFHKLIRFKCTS

With `CCN(CC)C(=O)[C@@H]1C=C2c3cccc4[nH]cc(c34)C[C@H]2N(Cc2ccccc2OC)C1` [Compound 10, (6aR,9R)—N,N-diethyl-7-(2-methoxybenzyl)-4,6,6a,7,8,9-hexahydroindolo[4,3-fg]quinoline-9-carboxamide], on Alpha2A receptor (setting [2]), the pEC50 is less than 4.50. Besides, in data set [1], the “t1/2” value came to 7.3 min and the microsomal CLint at 1 μM was 190 µL/min/mg. Further, in the data set on C57BL/6 mice, the ED50 amounted to 1.26 mg/kg, the “Most Efficacious Dose” value was determined as 3.2 mg/kg and the “Emax (95% CI)” value is reported as 7.749 (4.126-???). Also, in the data set on C57BL/6 mice (mouse), the “efficacy in HTR assay (in words)” value is “low efficacy” and the “# HTR at Most Efficacious Dose” value is listed as 6.5. Further, the pEC50 at 5-HT2A receptor was 6.19. Besides, the negative logarithm of the EC50 (pEC50) at 5-HT1B receptor is 5.50.

For `CCCN1C[C@H](C(=O)NC(CC)CC)C=C2c3cccc4[nH]cc(c34)C[C@H]21` [Compound 6, (6aR,9R)—N-(pentan-3-yl)-7-propyl-4,6,6a,7,8,9-hexahydroindolo[4,3-fg]quinoline-9-carboxamide], in data set [1], the “t1/2” value came to 1.607 min and the microsomal CLint at 1 μM came to 862 µL/min/mg. Further, in the data set on C57BL/6 mice, the ED50 is 0.139 mg/kg, the “Most Efficacious Dose” value is listed as 1 mg/kg and the “Emax (95% CI)” value was 23.06 (19.86-27.47). Further, the pEC50 on 5-HT2A receptor was 7.95. Besides, on 5-HT1B receptor, the pEC50 was 6.70.

Consider `CCCN1C[C@H](C(=O)N2[C@@H](C)C[C@@H]2C)C=C2c3cccc4[nH]cc(c34)C[C@H]21` [Compound 4, ((2S,4S)-2,4-dimethylazetidin-1-yl)((6aR,9R)-7-propyl-4,6,6a,7,8,9-hexahydroindolo[4,3-fg]quinolin-9-yl)methanone], for which the pEC50 on Alpha2A receptor is 5.97. In addition, in data set [1], the “t1/2” value was 10.6 min and the microsomal CLint at 1 μM was found to be 130 µL/min/mg. In addition, in the data set with C57BL/6 mice, the ED50 was found to be 0.376 mg/kg, the “Most Efficacious Dose” value was 0.1 mg/kg and the “Emax (95% CI)” value was 4.034 (2.965-5.217). Moreover, in the data set on C57BL/6 mice (mouse), the “efficacy in HTR assay (in words)” value was “less efficacious”. The pEC50 on 5-HT2A receptor was 7.67. For the same molecule, on 5-HT1B receptor, the “5-HT1B % Act @ Max Dose” value was 96% and the negative logarithm of the EC50 (pEC50) is 7.01.

The molecule `CCN(CC)C(=O)[C@@H]1C=C2c3cccc4[nH]cc(c34)C[C@H]2N(CCCF)C1` [Compound 2, (6aR,9R)—N,N-diethyl-7-(3-fluoropropyl)-4,6,6a,7,8,9-hexahydroindolo[4,3-fg]quinoline-9-carboxamide] showed a pEC50 on Alpha2A receptor of 6.00. Further, in data set [1], the “t1/2” value came to 19.061 min and the microsomal CLint at 1 μM is 72.7 µL/min/mg. Further, in the data set on C57BL/6 mice, the ED50 is 0.0703 mg/kg, the “Most Efficacious Dose” value amounted to 0.32 mg/kg and the “Emax (95% CI)” value was 20.47 (18.43-22.6). Also, the pEC50 at 5-HT2A receptor is 7.95. The pEC50 on 5-HT1B receptor was 6.71.

As to `CCCN1C[C@H](C(=O)N(CC)CC)C=C2c3cccc4[nH]cc(c34)C[C@H]21` [Compound 1, (6aR,9R)—N,N-diethyl-7-propyl-4,6,6a,7,8,9-hexahydroindolo[4,3-fg]quinoline-9-carboxamide], the pEC50 on Alpha2A receptor is 7.37. In data set [1], the “t1/2” value is reported as 15.1 min and the microsomal CLint at 1 μM is 91.6 µL/min/mg. In addition, in the data set on C57BL/6 mice, the ED50 was 0.0946 mg/kg, the “Most Efficacious Dose” value is 1 mg/kg and the “Emax (95% CI)” value was 21.63 (18.45-25.78). Moreover, the “induction of head twitch response (in words)” value with C57BL/6 mice (mouse) was “robust and dose-dependent HTR”. Moreover, the pEC50 at 5-HT2A receptor was 7.73. On 5-HT1B receptor, the pEC50 is 8.42.

With `CCN(CC)C(=O)[C@@H]1C=C2c3cccc4[nH]cc(c34)C[C@H]2N(CCc2ccccc2OC)C1` [Compound 11, (6aR,9R)—N,N-diethyl-7-(2-methoxyphenethyl)-4,6,6a,7,8,9-hexahydroindolo[4,3-fg]quinoline-9-carboxamide], the pEC50 at Alpha2A receptor (setting [2]) was less than 4.50. Also, in data set [1], the “t1/2” value was 2.372 min and the microsomal CLint at 1 μM is 584 µL/min/mg. In addition, in the data set on C57BL/6 mice, the ED50 was found to be 2.21 mg/kg, the “Most Efficacious Dose” value is reported as 3.2 mg/kg and the “Emax (95% CI)” value was 19.79 (12.66-80.7). In addition, in the data set with C57BL/6 mice (mouse), the “efficacy in HTR assay (in words)” value was “low efficacy” and the “# HTR at Most Efficacious Dose” value was determined as 12.0. At 5-HT2A receptor, the pEC50 was 6.67. Also, on 5-HT1B receptor, the pEC50 was 6.35.

Consider `CCCN1C[C@H](C(=O)N[C@H](C)CC)C=C2c3cccc4[nH]cc(c34)C[C@H]21` [Compound 3, (6aR,9R)—N—((R)-sec-butyl)-7-propyl-4,6,6a,7,8,9-hexahydroindolo[4,3-fg]quinoline-9-carboxamide], for which, on Alpha2A receptor, the pEC50 was 5.44. Further, in data set [1], the “t1/2” value was 4.2 min and the microsomal CLint at 1 μM was 331 µL/min/mg. In addition, in the data set with C57BL/6 mice, the ED50 is 0.0401 mg/kg, the “Most Efficacious Dose” value is recorded as 0.32 mg/kg and the “Emax (95% CI)” value is given as 25.56 (22.08-29.36). Besides, the “# HTR at Most Efficacious Dose” value in the data set on C57BL/6 mice (mouse) amounted to 27.0. Further, the “selectivity for the 5-HT2A receptor over the tested adrenergic and dopamine receptors (in words)” value at 5-HT2A receptor (Ca^2+ flux functional assays) is reported as “exceptional selectivity”. For the same molecule, the pEC50 at 5-HT2A receptor was 8.80. The pEC50 at 5-HT1B receptor was 7.16.
